Reference: patent US11045745B2, “Reactive extraction of water” (University of Pittsburgh—Of the Commonwealth System of …, priority 2017, dated 2021)
Marks after values point to notes of the source that are not given here.

Tests used:
Assay type in all cases: physicochemical
[1] = Solubility in water (remark on sample preparation)
From the text: (§1) This should not affect the measured hydration equilibrium greatly though since water is in such high excess. From Examples 2-2 to 2-5, the tunability of the hydration constant by altering the substituent on the benzyl ring is readily apparent.

[2] = Ketone hydration to diol equilibrium constant by room temperature NMR (Technique 1); details: for KH,app at 20 ± ° C. (1H) / KH,app at 20 ± ° C. (19F): d6-DMSO/H2O (1/1, mol/mol); for KH,app at 20 ± ° C. (1H): 1H NMR; for KH,app at 20 ± ° C. (19F): 19F NMR
Description: (§2) Ketone hydration to diol equilibrium constants (KH) and thermodynamic parameters for Example compounds were measured by NMR by adapting techniques from the literature [Bushman et al., Berichte der Bunsengesellschaft für physikalische Chemie, 84: 41-44 (1980); Greenzaid et al., J. Amer. Chem. Soc. 89: 749-756 (1967); and R. Stewart and J. D. Van Dyke, Can. J. Chem. 50: 1992-1999 (1972)] using either Technique 1 (IIa) or Technique 2 (IIb), further deviations to the general methods are noted with those Examples. D2O concentration was minimized to reduce the isotope effect (˜20% according to Bushman 1980).
(§3) The conversion from ketone to diol results in an upfield change in nuclear chemical shift. This change in nuclear resonance frequency can then be used to distinguish between ketone and diol peaks in the NMR spectrum. Since area integration of NMR peaks is directly related to the number of atoms resonating at that frequency, the area ratio between diol and ketone peaks can be used to calculate equilibrium constants. Assuming water is in high excess relative to the ketone its activity can be treated as unity resulting in the KH being only dependent on the relative peak integration ratio of diol/ketone:
In many Examples, only a single resonance for each species was available for to determine the diol/ketone ratio. Where available equilibrium constants were calculated by averaging multiple resonance together normalized by number of hydrogens associated with each of them.
Due to the insolubility of some ketones in water, DMSO was used as a co-solvent at 50% by mole. Equilibrium constants obtained with DMSO as a co-solvent are only apparent constants (KH,app) since this alters the activities of the compounds relative to a pure water solvent. […] J. Chem. 50: 1992-1999 (1972)].
In a volumetric flask, ketones were dissolved to a concentration of approximately 0.5 M in 50 mol % d^6-DMSO/H2O. Solutions were left to equilibrate overnight then transferred to an NMR tube for analysis. Solutions were measured by ^1H NMR at (400 MHz) or ^19F NMR (376 MHz) at ambient temperature (20±1° C.).
as §1

[3] = Ketone hydration equilibrium and thermodynamic parameters by variable temperature NMR (Technique 2), van't Hoff fit; details: for ΔG ° / ΔH ° / −TΔS °: van't Hoff fit; for KH at 25° C. (KH,app): apparent constant
Description: as §2, §3
For a select set of compounds a series of variable temperature NMR measurements (IIB: Technique 2) were made to extract reaction standard enthalpy)(ΔH°) and entropy(ΔS°) contributions to free energy of hydration)(ΔG°). Equilibrium constants versus temperature data were fit to the van't Hoff equation to determine ΔH°, ΔS°, and ΔG°; changes in heat capacity were assumed to be negligible:
In a volumetric flask (1.00, 2.00, or 10.00 mL) ketones were dissolved to a concentration of approximately 0.5 M in solvents composed of either D2O/H2O (5/95, v/v; method 2a) or d^6-DMSO/DMSO/H2O (10/40/50 by moles; method 2b). The solution was left to equilibrate at room temperature overnight then transferred to a standard NMR tube.
A series of 1H NMR (400 MHz)measurements were made with variable temperature control (0.1° C. precision) ranging from 25-65° C., typically in 10° C. increments. At each increment once the temperature had stabilized to within ±0.2° C. of the goal, samples were equilibrated for 5 minutes prior to the measurement.
The van't Hoff equation was then fit to a plot of KH vs. temperature; energy standard deviation were calculated from the fit of the equation to the raw data.
Examples 2-6 and 2-11 were prepared using variations to the standard procedure. Example 2-6 was prepared with a concentration of 50 mM, so that it was soluble in water. For Example 2-11, a small amount of enol was also observed (about 0.08 relative to ketone). To account for this, we calculated KH for Example 2-11 as diol/(ketone+enol), assuming enol formation from the ketone is reversible.

SMILES | KH,app at 20 ± ° C. (19F) [2] | KH at 25° C. ([3]; D2O/H2O (5/95, v/v)) | ΔG ° ([3]; D2O/H2O (5/95, v/v)) [kcal/mol] | ΔH ° ([3]; D2O/H2O (5/95, v/v)) [kcal/mol] | −TΔS ° ([3]; D2O/H2O (5/95, v/v)) [kcal/mol] | further results
CC(=O)C(C)(C)[N+](=O)[O-] [Example 2-1, 3-methyl-3-nitrobutan-2-one] |  |  |  |  |  | solubility in water [1]: low solubility in water; KH,app at 20 ± ° C. ([2]; D2O/H2O (5/95, v/v), 23 mM): 0.22
CC(F)(F)C(=O)c1ccccc1 [Example 2-2, 2,2-difluoro-1-phenyl-1-propanone] | 3.3 |  |  |  |  | KH,app at 20 ± ° C. (1H) [2]: 2.8
COc1ccc(C(=O)C(F)(F)F)cc1 [Example 2-3] | 23 |  |  |  |  | KH,app at 20 ± ° C. (1H) [2]: 21
O=C(c1ccc(F)cc1)C(F)(F)F [Example 2-4] | 500 (^19F) |  |  |  |  | 
O=C(c1ccccc1)C(F)(F)F [Example 2-5] | 370 (^19F) |  |  |  |  | 
CC(=O)C(C)(C)C#N [Example 2-6] |  | 0.063 | 1.63 ± 0.48 | -5.86 ± 0.359 | 7.48 ± 0.335 | 
O=C1CCCCC1F (stereo not drawn) [Example 2-8] |  |  |  |  |  | KH at 25° C. (KH,app) ([3]; DMSO/H2O (1/1, mol/mol)): 0.52^a; ΔG ° ([3]; DMSO/H2O (1/1, mol/mol)): 0.96 ± 0.17 kcal/mol; ΔH ° ([3]; DMSO/H2O (1/1, mol/mol)): -5.35 ± 0.096 kcal/mol; −TΔS ° ([3]; DMSO/H2O (1/1, mol/mol)): 6.31 ± 0.14 kcal/mol
O=C(CF)CF [Example 2-9] |  | 27 | -1.94 ± 0.24 | -7.5 ± 0.17 | 5.57 ± 0.17 | 
CC(=O)C(C)=O [Example 2-10] |  | 2.5 | -0.526 ± 0.359 | -5.98 ± 0.359 | 5.45 ± 0.359 | 
CCC(=O)C(C)=O [Example 2-11] |  | 1.5 | -0.263 ± 0.12 | -5.47 ± 0.12 | 5.21 ± 0.12 | KH at 25° C. (KH,app) ([3]; DMSO/H2O (1/1, mol/mol)): 0.45^a; ΔG ° ([3]; DMSO/H2O (1/1, mol/mol)): 0.48 kcal/mol; ΔH ° ([3]; DMSO/H2O (1/1, mol/mol)): -5.74 kcal/mol; −TΔS ° ([3]; DMSO/H2O (1/1, mol/mol)): 6.21 kcal/mol; enol observed relative to ketone ([3]; NMR): about 0.08
